Measurements from patent US20120309753A1, “METHOD OF DISSOLVING ANTIFUNGAL AGENT, AND COMPOSITIONS WITH A HIGH CONCENTRATION OF ANTIFUNGAL AGENT, SUITABLE FOR APPLICATION TO THE NAIL” (GALDERMA RESEARCH & DEVELOPMENT, priority 2009, published 2012).
Counter-ions that a name gives are not always drawn. Like-named read-outs stand apart in the source and are kept apart here.

How the values were obtained:
[1] = Visual solubility of terbinafine HCl in solvent systems (Method 1); type: physicochemical
Procedure: Terbinafine HCl is weighed out accurately into a 20 ml flask and then the solvents are added. The flask is subsequently placed, with magnetic stirring, in a chamber thermostated at 20° C., for 16 h. If some of the active ingredient has not dissolved, a further addition of solvent is made. The flask is then placed again, with magnetic stirring, in the thermostated chamber, for 16 h, until dissolution is complete. If this is not so, the preceding step is repeated.

[2] = Procedure: Different solubility tests on terbinafine HCl were carried out in different solvent systems. The solubility was both estimated visually by Method 1 below, then quantified by HPLC assay by Method 2 below.
Weigh out precisely approximately 15 mg of terbinafine HCl into a 50 ml volumetric flask. Dissolve in the diluent and make up to the volume with the same solvent. Prepare the solution in duplicate (A1, A2)
Dilute solution A to 1/5 in the diluent. Dilution
The standard range is produced by varying the injection volume of solution A, at an equivalent concentration of 4 μg/ml to 120 μg/ml.
2 tests per sample are prepared, of concentrations from 40 μg/ml to 100 μg/ml.
• Column: Sun Fire C18 4.6×100 mm 3.5 μm, fitted with a precolumn. • Column temperature: 30° C. • Flow rate: 1.5 ml/min • Injected volume: 30 μl for the sample solutions • Analysis time: 10 min • Detection at: 285 nm • Gradient:
• Inject a blank sample (diluent) and check that no peak of the blank sample interferes with the terbinafine HCl. • Inject solutions STD1 and STD2 and check that the % deviation between the 2 controls is <2%.

[3] = system: Trichophyton rubrum; settings: oral route, 250 mg/day for 6 months; cited from earlier work

| visual solubility ([1]; 15% water, 70% ethanol, 15% propylene glycol) | visual solubility ([1]; 15% water, 70% propylene glycol, 15% ethanol) | visual solubility ([1]; 30% water, 35% propylene glycol, 35% ethanol) | visual solubility ([1]; 33% water, 33% propylene glycol, 33% ethanol) | visual solubility ([1]; 50/50 ethanol/propylene glycol mixture, 20° C.) | visual solubility ([1]; binary water/ethanol mixture (50/50), 20° C.) | visual solubility ([1]; binary water/propylene glycol mixture (50/50), 20° C.) | visual solubility ([1]; in ethanol, 20° C.) | visual solubility ([1]; in propylene glycol, 20° C.) | visual solubility ([1]; in water, 20° C.) | solubility ([1]; ternary water/propylene glycol/ethanol mixture containing at least 30% of water (Graph 1)) | solubility by HPLC assay ([2]; 50/50 ethanol/propylene glycol mixture) | expected solubility by additive effect ([2]; ethanol/propylene glycol binary mixture, expected from the single solvents) | solubility by HPLC assay ([2]; in ethanol) | solubility by HPLC assay ([2]; in propylene glycol) | solubility ([1]; ternary mixture with 40% of water, amount of ethanol greater than or equal to that of propylene glycol) | Structure (SMILES) | efficacy in the treatment of onychomycoses due to Trichophyton rubrum [3] |
| --- | --- | --- | --- | --- | --- | --- | --- | --- | --- | --- | --- | --- | --- | --- | --- | --- | --- |
| 25.2 % w/w | 25.0 % w/w | 18.5 % w/w | 15.5 % w/w | 23.3 % w/w | 16.7 % w/w | 2.2 % w/w | 19.7 % w/w | 8.9 % w/w | 0.6 % w/w | greater than 10% | 20.4 % w/w | ~14% | 18.09 % w/w | 10.3 % w/w | – | CN(C/C=C/C#CC(C)(C)C)Cc1cccc2ccccc12 [terbinafine HCl, terbinafine hydrochloride] | – |
| – | – | – | – | – | – | – | – | – | – | – | – | – | – | – | greater than 10% | CN(C/C=C/C#CC(C)(C)C)Cc1cccc2ccccc12 [terbinafine] | effective |
